Test results taken from patent US20140297199A1, “DRUG SCREENING METHOD AND USES THEREOF” (COLD SPRING HARBOR LABORATORY, priority 2011, published 2014).
“Also recorded” adds a separate entry of the source.

Key:
[1] = system: c-fos-GFP expression in the transgenic c-fos-GFP mouse brain; experiment: c-fos-GFP induction in transgenic c-fos-GFP mouse brain, whole-mount two-photon microscopy (Example 3); type: in vivo; settings: three hours, vs saline, one animal per treatment
Description: High-throughput whole-brain imaging of an immediate early gene (IEG) induction was used in transgenic “indicator” mice that express GFP from specific IEG promoters, such as c-fos and Arc promoters in c-fos-GFP and Arc-GFP transgenic mice ((Barth et al., J Neurosci 24, 6466-6475 (2004); Grinevich et al., Journal of Neuroscience Methods 184, 25-36 (2009)). In these mice, GFP represents a readily detectable surrogate for the expression of the native gene.
Whole-mount two-photon microscopy was used for automated mouse brain imaging. The instrument works as follows: First, a fixed mouse brain embedded in an agar block is placed in a water bath on top of a computer controlled x-y-z stage. The stage moves the brain under the objective, so that the top is imaged as a mosaic of individual fields of view (“tiles”). […]
To validate the entire pipeline of data processing, the trained neural networks were applied to extract c-fos-GFP signal in brains of two mice, one injected with saline and the other with haloperidol at 1 mg/kg (FIG. 27). Three hours later, the mice were euthanized, their brains imaged by whole-mount two-photon microscopy, and c-fos-GFP-positive cells were computationally detected and visualized as a three-dimensional representation of intensity centroids (FIG. 17).

[2] = system: c-fos-GFP expression in the whole mouse brain; experiment: c-fos-GFP pharmacomap by STP tomography, haloperidol vs saline (Example 5); type: in vivo; settings: 3 hours
Description: This example analyzes the effects of antipsychotic drugs on neural circuit activity in the whole mouse brain. The method comprises the following steps: (1) an automated whole-brain microscopy, STP tomography, was used to image brains of c-fos-GFP mice, which express GFP as a marker for native c-fos; (2) the distribution of the activated c-fos-GFP-positive neurons was computationally detected by convolutional neural networks; (3) the processed datasets were warped and registered in a 3D reference brain and voxelized for statistical comparisons.
Transgenic c-fos-GFP mice (Reijmers et al., Science 317:1230-1233 (2007)), expressing GFP as a surrogate marker for native c-fos, was injected with intraperitoneally with haloperidol (1 mg/kg) or saline (control). The mice were returned to their home cage and left undisturbed for 3 hours, a time period needed for the induction and fluorophore maturation of c-fos-GFP. Next, the mice were deeply anesthetized and euthanized by intra-cardiac perfusion with saline and paraformaldehyde for brain fixation. The mice were decapitated and the brain was extracted, postfixed and embedded in agar for STP tomography. Three PMTs (C1-C3) can be used for multi-color imaging. […]

[3] = system: c-fos-GFP expression in the mouse brain; experiment: Haloperidol dose-response c-fos-GFP pharmacomaps (Example 10); type: in vivo
Description: For example, before injection, male mice (8 weeks old) are single-housed for five days in order to limit the variability of the baseline c-fos-GFP expression.
For example, the datasets are represented as the number of centroids (c-fos-GFP cells) lying within an evenly spaced grid of 450×650×300 elements (voxels), each of size 20×20×50 microns.
Drugs have different effects and side effects at different dosages.

[4] = system: c-fos-GFP expression in the mouse brain; experiment: c-fos-GFP pharmacomaps of three antipsychotics at a moderate dosage (Example 9); settings: 5 mouse brains per drug
[5] = haloperidol 0.25, risperidone 1.0, aripiprazole 1.0 mg/kg, vs saline-injected control

O=C(CCCN1CCC(O)(c2ccc(Cl)cc2)CC1)c1ccc(F)cc1 [haloperidol]
c-fos-GFP-positive cells per coronal section, caudal sections ([1]; 1 mg/kg, preliminary quantitation): increased numbers of c-fos-GFP-positive cells in many caudal coronal sections; also recorded: broad distribution of haloperidol-evoked c-fos-GFP induction in the caudal sections | brain regions with c-fos-GFP induction ([1]; i.p. 1 mg/kg): expected induction of c-fos-GFP in the striatum and lateral septum; also recorded: expected strong induction of c-fos-GFP in the caudate putamen; also recorded: Strong labeling is induced in striatum (A) and lateral septum (B) | previously identified brain regions detected as statistically different vs saline ([2]; 1 mg/kg i.p., n=7 vs saline n=7, negative binomial regressions, FDR 0.01): Medial prefrontal Cx, Cingulate Cx, Piriform Cx, Major Islands of Calleja, Nc Accumbens (whole, shell, core), Lateral septum, Striatum (whole), Medial preoptic area, Paraventricular nucleus, Bed nucleus of stria terminalis, Medial thalamus | number of c-fos-GFP cells in the brain (c-fos-GFP pharmacomap) ([2]; 1 mg/kg intraperitoneally, saline brain 176,771): 545,838 c-fos-GFP cells | brain regions activated (pharmacomap A) ([3]; 0.05 mg/kg (low)): activated dorsomedial hypothalamus (HYP), ACB, and CP | brain regions activated (pharmacomap B) ([3]; 0.25 mg/kg (medium)): activated the same structures as shown in pharmacomap A, plus OT, LS and PL | brain regions activated (pharmacomap C) ([3]; 1.0 mg/kg (high)): more widespread activation, including, in addition, prelimbic (PL), infralimbic (IL), and lateral entorhinal (ENT) areas, BST, central amygdala (CEA) and PVT | numbers of activated areas across dosages ([3]; 0.05, 0.25 and 1.0 mg/kg): increasing numbers of activated areas observed with increasing dosage | strength of c-Fos induction within commonly activated regions (caudate putamen and nucleus accumbens) ([3]; 0.05, 0.25 and 1.0 mg/kg, data not shown): significantly increased with increasing dosage | brain regions activated (pharmacomap) ([4]; haloperidol 0.25 mg/kg, risperidone 1.0 mg/kg, aripiprazole 1.0 mg/kg, vs saline): activated a major portion of the caudate putamen (CP) and nucleus accumbens (ACB), as well as the olfactory tubercle (OT), prelimbic cortex (PL), lateral septum (LS) and dorsomedial hypothalamus (HYP) | c-fos-GFP activation, Anterior cingulate cortex (ACAd) [4, 5]: up | c-fos-GFP activation, Anterior cingulate cortex (ACAv) [4, 5]: 0 | c-fos-GFP activation, Basal, Central, Cortic. Amydgala (AMG) [4, 5]: 0 | c-fos-GFP activation, Bed nucleus of Stria Terminalis (BST) [4, 5]: 0 | c-fos-GFP activation, Caudate-putamen (CP, dorso-medial) [4, 5]: up | c-fos-GFP activation, Caudate-putamen (CP, ventro-medial) [4, 5]: up | c-fos-GFP activation, Caudoputamen (CP, dorsolateral) [4, 5]: up | c-fos-GFP activation, Caudoputamen (CP, ventrolateral) [4, 5]: up | c-fos-GFP activation, Central medial thalamic nucleus [4, 5]: 0 | c-fos-GFP activation, Claustrum (CLA) [4, 5]: 0 | c-fos-GFP activation, Dorsomedial hypoth. (HYP) [4, 5]: up | c-fos-GFP activation, Gostatory Cx (GU) [4, 5]: 0 | c-fos-GFP activation, Hippocampus: CA1, CA2, CA3 (HF) [4, 5]: 0 | c-fos-GFP activation, Hippocampus: DG [4, 5]: 0 | c-fos-GFP activation, Hypothalamus, ventromedial nuclei [4, 5]: 0 | c-fos-GFP activation, Infralimbic cortex (IL) [4, 5]: up | c-fos-GFP activation, Insular area, agranular [4, 5]: 0 | c-fos-GFP activation, Lateral Septum (LS) [4, 5]: up | c-fos-GFP activation, Lateral Spetal Nucl, dorsal part [4, 5]: 0 | c-fos-GFP activation, Midline Thalamus (Nucl Reuniens, RE) [4, 5]: 0 | c-fos-GFP activation, Midline Thalamus (PVT) [4, 5]: 0 | c-fos-GFP activation, Motor area, primary (MOp) [4, 5]: 0 | c-fos-GFP activation, Motor area, secondary (MOs) [4, 5]: 0 | c-fos-GFP activation, Nucleus Accumbens (ACB), core [4, 5]: up | c-fos-GFP activation, Nucleus Accumbens (ACB), shell [4, 5]: up | c-fos-GFP activation, Nucleus Accumbens (ACB), whole [4, 5]: up | c-fos-GFP activation, Olfactory tubercle (OT) [4, 5]: up | c-fos-GFP activation, Orbital cortex ventral (VO) [4, 5]: 0 | c-fos-GFP activation, Orbital cx (ORB), lateral [4, 5]: 0 | c-fos-GFP activation, Orbital cx (ORB), medial [4, 5]: up | c-fos-GFP activation, Piriform cx (PIR) [4, 5]: 0 | c-fos-GFP activation, Prelimbic cx (PL) [4, 5]: up | c-fos-GFP activation, RSPd, v, d and agl [4, 5]: 0 | c-fos-GFP activation, Red nucleus (RN) [4, 5]: 0 | c-fos-GFP activation, Somatosensory cx, primary [4, 5]: 0 | c-fos-GFP activation, Striatum, ventro-lateral [4, 5]: 0 | c-fos-GFP activation, Superior Colliculus (SC) [4, 5]: 0 | c-fos-GFP activation, Temporal cortex [4, 5]: 0 | c-fos-GFP activation, Ventromedial Thalamus (caudally) [4, 5]: 0 | c-fos-GFP activation, Zona Inserta [4, 5]: 0
